Assay results reported in the CATMoS acute toxicity set (Mansouri et al. 2021).
“And” between values parts separate entries of the source, which are not always exact repeats. Equal values may be shown once.

Experiment: rat acute oral toxicity
Details: in vivo
Source text: […]The data set underlying the modeling effort for this project was initially compiled by NICEATM and U.S. EPA’s CCTE. Briefly, LD50 data were collected from rat acute oral systemic toxicity tests, including limit tests, ranges/confidence intervals, and discrete LD50 values. The full data set included 21,200 LD50 entries for 15,688 substances. […] Data were reviewed to ensure that LD50 values with obvious errors in the extracted data such as unit conversion errors (e.g., comma and decimal separator misplacements) were either fixed or removed. After this review, 16,209 LD50 values remained. Many of the chemicals represented had multiple LD50 entries, requiring that a single representative value per Chemical Abstracts Service Registry Number (CASRN) identifier be defined to facilitate modeling efforts. Based on ATWG feedback and to define the representative LD50 as a protective value while accounting for the distribution across multiple LD50s, the median of the lowest quartile was computed using only discrete LD50 values (omitting limit test data and range and confidence interval data). A detailed summary of the data compilation is available online on the NICEATM webpage dedicated to the collaborative modeling project (NTP 2020).
[…][…] For categorical designations, limit test and range/confidence interval LD50 data were integrated wherever possible. As such, the number of chemicals with end point values/calls varies across the modeling end points (Table 3) based on whether chemicals had representative LD50 values and/or other data. If a chemical had both, the representative value was used to determine categorical calls rather than limit test data. Some data were useable only for certain end points and categories depending on the thresholds. For example, ranges that spanned multiple hazard categories were considered only for the binary (very toxic/nontoxic) end points and omitted from rendering a determination for hazard category assignment.
[…]The final data set comprising 11,992 chemicals was split into training and evaluation sets […], respectively. This process was performed semirandomly by ordering chemicals based on the five end points (categorical and continuous LD50 values) and partitioning every fourth record into the evaluation set accordingly. This approach was taken to ensure an equivalent distribution of the LD50 values and the different hazard categories between the training and the evaluation sets without supervised sampling of the chemicals based on structures (Figure 1A). The sources of the chemical structures were also kept equivalent between the two sets, with chemical structures obtained from DSSTox, being the highest quality, representing over 75% of each set (Figure 1B).

| Structure (SMILES) | LD50 |
| --- | --- |
| Clc1cc2c(c(Cl)c1Cl)Oc1c(cc(Cl)c(Cl)c1Cl)O2 | 0.8 mg/kg |
| CC1(C)CC(=O)CC(C)(C)N1 | 1330 mg/kg |
| CC[C@H]1OC(=O)[C@H](C)[C@@H](O[C@H]2C[C@@](C)(OC)[C@@H](O)[C@H](C)O2)[C@H](C)[C@@H](O[C@@H]2O[C@H](C)C[C@H](N(C)C)[C@H]2O)[C@](C)(O)C[C@@H](C)C(=O)[C@H](C)[C@@H](O)[C@]1(C)O | 4600 mg/kg |
| CCOC(=O)C(O)(c1ccc(Cl)cc1)c1ccc(Cl)cc1 | 700 mg/kg |
| CC(C)=O | 5800 mg/kg |
| CC(C)(C)c1ccc(CCOc2ncnc3ccccc23)cc1 | 134 mg/kg |
| C=C(C)C(=O)OCCO | 5050 mg/kg |
| CC(C)CCCCCCCO | 6400 mg/kg |
| CCCCCC1CCC(=O)O1 (stereo not given) | 6600 mg/kg |
| N#CCNC(=O)c1cnccc1C(F)(F)F | 884 mg/kg |
| CC(=O)c1ccccc1 | 858 mg/kg |
| CCC[N+](CCC)(CCC)CCC | 3300 mg/kg |
| CCN(CC)C(=O)c1cccc(C)c1 | 1950 mg/kg |
| Oc1cc(Cl)ccc1Cl | 580 mg/kg |
| CC(=O)N[C@@H](CS)C(=O)O | 3000 mg/kg |
| C/C=C\CC1=C(C)[C@@H](OC(=O)[C@@H]2[C@@H](/C=C(\C)C(=O)OC)C2(C)C)CC1=O | 1030 mg/kg |
| CC(C)OC(=O)Cl | 468 mg/kg |
| O=C1c2ccccc2C(=O)C1C(=O)C(c1ccccc1)c1ccc(Cl)cc1 (stereo not given) | 2.1 mg/kg |
| CC=C1CC2C=CC1C2 (stereo not given) | 2280 mg/kg |
| CC(=O)CC(C)(C)O | 2520 mg/kg |
| C=CC(=O)OCC | 800 mg/kg |
| O=c1oc2ccccc2c(O)c1C1CC(c2ccc(OCc3ccc(C(F)(F)F)cc3)cc2)Cc2ccccc21 (stereo not given) | 0.25 mg/kg |
| O=[N+]([O-])c1ccc(Oc2ccc(Cl)cc2Cl)cc1 | 2410 mg/kg |

| Structure (SMILES) | LD50 |
| --- | --- |
| ClC1=C(Cl)[C@]2(Cl)[C@H]3[C@H]([C@@H]4C=C[C@H]3C4)[C@@]1(Cl)C2(Cl)Cl (racemic) | 39 mg/kg |
| O=C(O)/C=C/C(=O)O | 9300 mg/kg |
| Cc1ccccc1C(OCCN(C)C)c1ccccc1 (stereo not given) | 255 mg/kg |
| CN=C(O)Oc1cccc(C)c1 | 268 mg/kg |
| COC(=O)CCS | 182 mg/kg |
| CC(=O)C1=C(C)[C@@H]2C[C@@]3(C1)[C@H](C)CC[C@H]3C2(C)C | 4500 mg/kg |
| CC(C)c1ccc2ccc(C(C)C)cc2c1 | 4130 mg/kg |
| COC(=O)C(C)Oc1ccc(Oc2ccc(Cl)cc2Cl)cc1 (stereo not given) | 481 mg/kg |
| CCOC(=O)CCN(SN(C)C(=O)Oc1cccc2c1OC(C)(C)C2)C(C)C | 105 mg/kg |
| CC(C)=CC1C(C(=O)OCc2coc(Cc3ccccc3)c2)C1(C)C (stereo not given) | 1240 mg/kg |
| CC(Oc1cc(Cl)c(Cl)cc1Cl)C(=O)O (stereo not given) | 650 mg/kg |
| Clc1cc(-c2cc(Cl)c(Cl)c(Cl)c2)cc(Cl)c1Cl | 4250 mg/kg |
| CC(C)OC(=O)COc1ccc(Cl)cc1Cl | 375 mg/kg |
| CO[C@H]1/C=C/O[C@@]2(C)Oc3c(C)c(O)c4c(O)c(c(/C=N/N5CCN(C)CC5)c(O)c4c3C2=O)NC(=O)/C(C)=C\C=C\[C@H](C)[C@H](O)[C@@H](C)[C@@H](O)[C@@H](C)[C@H](OC(C)=O)[C@@H]1C | 900 mg/kg |
| Cc1ccc(N)cc1C | 810 mg/kg |
| O=[N+]([O-])c1ccc(Cl)c([N+](=O)[O-])c1 | 640 mg/kg |
| Cc1cccc(N=C=O)c1 | 2930 mg/kg |
| CNS(=O)(=O)c1cc(OC)c(N)cc1OC | 815 mg/kg |
| CC=C1CC2CC1C1C3C=CC(C3)C21 (stereo not given) | 666 mg/kg |
| Ic1ccccc1 | 1750 mg/kg |
| CC(C)(C)c1ccc(O)c(O)c1 | 815 mg/kg |
| C[C@@H](O)C(=O)O | 3540 mg/kg |
| C=CC(=O)OCC(O)COCCCCOCC(O)COC(=O)C=C (stereo not given) | 200 mg/kg |

| Structure (SMILES) | LD50 |
| --- | --- |
| NC(=O)c1ccccc1Cl | 1250 mg/kg |
| CC(C)(C)C(O)(CCc1ccc(Cl)cc1)Cn1cncn1 (stereo not given) | 1700 mg/kg |
| O=C1C(Cl)=C(Cl)C(=O)C(Cl)=C1Cl | 4000 mg/kg |
| COc1ccc2c(c1)c(CC(=O)O)c(C)n2C(=O)c1ccc(Cl)cc1 | 2.42 mg/kg |
| CC(C)CC(C)O (stereo not given) | 2590 mg/kg |
| CNC(=O)ON=C(C)SC | 14.7 mg/kg |
| C[Si]1(CCC(F)(F)F)O[Si](C)(CCC(F)(F)F)O[Si](C)(CCC(F)(F)F)O1 (stereo not given) | 180 mg/kg |
| O=CC=O | 481 mg/kg |
| CC1=CC(=O)CC(C)(C)C1 | 1500 mg/kg |
| CC1(C)COCN1 | 950 mg/kg |
| CCN(CC)C(=S)SSC(=S)N(CC)CC | 500 mg/kg |
| CC(C#N)CCC#N (stereo not given) | 170 mg/kg |
| Nc1ncnc2c1ncn2C1CC(O)C(COP(=O)(O)OP(=O)(O)OP(=O)(O)O)O1 (stereo not given) | 6770 mg/kg |
| CC1(C)CC(N)CC(C)(C)N1 | 906 mg/kg |
| C=Cc1cc(Br)ccc1Br | 5790 mg/kg |
| O=CCCCC=O | 134 mg/kg |
| ClC1C(Cl)C(Cl)C(Cl)C(Cl)C1Cl (stereo not given) | 88 mg/kg and 100 mg/kg |
| CCCCC(CC)COS(=O)(=O)O (stereo not given) | 2840 mg/kg |
| C=C(C)C(N)=O | 1650 mg/kg |
| C=CCBr | 120 mg/kg |
| CCCCCCCCCCCCCC[N+](C)(C)Cc1ccccc1 | 281 mg/kg |
| Oc1ccccc1Cl | 40 mg/kg |
| O=c1oc2ccccc2c(O)c1C1CC(c2ccc(-c3ccccc3)cc2)Cc2ccccc21 (stereo not given) | 0.925 mg/kg |

| Structure (SMILES) | LD50 |
| --- | --- |
| Cc1ccc(Nc2ccc(Nc3ccc(C)cc3)c3c2C(=O)c2ccccc2C3=O)cc1 | 3000 mg/kg |
| CCC(C)=NO | 930 mg/kg |
| CN(C)S(=O)(=O)Cl | 1220 mg/kg |
| OCCCCO | 1350 mg/kg |
| C/C(=N\C#N)N(C)Cc1ccc(Cl)nc1 | 146 mg/kg |
| CCC(N)CO (stereo not given) | 800 mg/kg |
| CC(=O)C(C)C | 148 mg/kg |
| C=CCCCC=CCOC | 4900 mg/kg |
| NC=O | 5580 mg/kg |
| COC(=O)CC(C)=O | 2580 mg/kg |
| C[C@@H]1Cc2c(Cl)cc(C(=O)N[C@@H](Cc3ccccc3)C(=O)O)c(O)c2C(=O)O1 | 20 mg/kg |
| Nc1cccc([N+](=O)[O-])c1 | 535 mg/kg |
| C=C(C)[C@H]1Cc2c(ccc3c2O[C@@H]2COc4cc(OC)c(OC)cc4[C@@H]2C3=O)O1 | 25 mg/kg |
| Clc1cccc(Cl)c1 | 580 mg/kg |
| O=C(CC(C(=O)OC1CCCCC1)S(=O)(=O)O)OC1CCCCC1 (stereo not given) | 2830 mg/kg |
| CCCCO | 790 mg/kg |
| CN(CC[C@H](N)CC(O)=N[C@H]1C=C[C@H](n2ccc(=N)nc2O)O[C@@H]1C(=O)O)C(=N)N | 53.3 mg/kg |
| CNC(=O)ON=C1C(Cl)C2CC(C#N)C1C2 (stereo not given) | 19 mg/kg |
| CC(C)CCCCCCCOP(OCCCCCCCC(C)C)OCCCCCCCC(C)C | 12000 mg/kg |
| Cc1cc(O)ccc1Cl | 1830 mg/kg |
| CC1(C)C(C=C(Br)Br)C1C(=O)OC(C#N)c1cccc(Oc2ccccc2)c1 (stereo not given) | 40.5 mg/kg |
| O=c1ccc(=O)[nH][nH]1 | 3800 mg/kg |
| NNc1nncc2ccccc12 | 173 mg/kg |

| Structure (SMILES) | LD50 |
| --- | --- |
| CC(C)COC(=O)CC(C(=O)OCC(C)C)S(=O)(=O)O (stereo not given) | 2770 mg/kg |
| c1ccc(Oc2ccccc2)cc1 | 2450 mg/kg |
| CC(C)N(C(=O)CCl)c1ccccc1 | 710 mg/kg |
| CCCCOCN(C(=O)CCl)c1c(CC)cccc1CC | 1740 mg/kg |
| CCCCC(CC)COC(=O)c1ccccc1 (stereo not given) | 2500 mg/kg |
| CCOP(=S)(OCC)Oc1cc(C)nc(C(C)C)n1 | 92 mg/kg |
| O=[N+]([O-])C(Br)(CO)CO | 180 mg/kg |
| O=C(O)CBr | 50 mg/kg |
| OC(O)C(Cl)(Cl)Cl | 479 mg/kg |
| CCC(CC)CN | 310 mg/kg |
| NC(=O)c1ccccc1O | 980 mg/kg |
| CC1=CCC(O)(C(C)C)CC1 (stereo not given) | 1300 mg/kg |
| CCOC(=O)c1ccc(O)cc1 | 4300 mg/kg |
| O=[N+]([O-])/N=C1\NCCN1Cc1ccc(Cl)nc1 | 410 mg/kg |
| CCN(CC)N=O | 220 mg/kg |
| CNC(=O)ON=C(SC)C(=O)N(C)C | 2.5 mg/kg |
| O=C1C=CC(=O)O1 | 318 mg/kg |
| CCOCCOC(C)=O | 2700 mg/kg |
| CCOC(=O)CC(O)(CC(=O)OCC)C(=O)OCC | 5900 mg/kg |
| CC(C)OC(=O)Nc1cccc(Cl)c1 | 1200 mg/kg |
| O=C=Nc1ccccc1 | 800 mg/kg |
| CON(C)C(=O)Nc1ccc(Cl)c(Cl)c1 | 1150 mg/kg |
| C=CC=O | 11.1 mg/kg |

| Structure (SMILES) | LD50 |
| --- | --- |
| NC1CCC(CC2CCC(N)CC2)CC1 (stereo not given) | 350 mg/kg |
| ClC(Cl)c1ccccc1 | 3250 mg/kg |
| S=c1sc2nc3ccccc3nc2s1 | 1800 mg/kg |
| N#CC(Br)(Br)C(N)=O | 178 mg/kg |
| CC(C)C#N | 50 mg/kg |
| CN(C)C | 460 mg/kg |
| CCC(C(c1ccc(Cl)cc1)c1ccc(Cl)cc1)[N+](=O)[O-] (stereo not given) | 300 mg/kg |
| COc1ccc(C(c2ccc(OC)cc2)C(Cl)(Cl)Cl)cc1 | 1860 mg/kg |
| CCOCCOCCOCC | 4970 mg/kg |
| CC(C)CC(=O)CC(C)C | 5260 mg/kg |
| CC(C)(C#N)C(C)(C)C#N | 27 mg/kg |
| C1=CC2C3C=CC(C3)C2C1 (stereo not given) | 366 mg/kg |
| C=C(C)C(=O)OCc1ccccc1 | 3980 mg/kg |
| N#CC(Br)Br | 245 mg/kg |
| CC/C(C)=N/O[Si](C)(O/N=C(\C)CC)O/N=C(\C)CC | 2450 mg/kg |
| CCCCOC(=O)C(C)Oc1ccc(Oc2ccc(C(F)(F)F)cn2)cc1 (stereo not given) | 2910 mg/kg |
| CC1=CC(C)(C)CC(=O)C1 | 1500 mg/kg |
| CCCCCCCCCCCCCCCCCC[N+](C)(C)CCCCCCCCCCCCCCCCCC | 11300 mg/kg |
| CCC(C)C=O (stereo not given) | 6400 mg/kg |
| Cc1ccc(N)cc1Cl | 302 mg/kg |
